Earlier results in patent publication US20100137246A1, “Anti-inflammatory compositions and methods” (Searete LLC, a limited liability corporation of the State …, priority 2008, published 2010).

Tests used:
[1] = system: lethal septic shock in mice
[2] = single agent, infused at 400 mg over one hour
Fyn = Fyn (Homo sapiens, UniProt P06241); conditions: at nanomolar concentrations
proteasome = conditions: cultured breast cancer cells; through binding copper

Fyn, sequence (P06241 whole entry, species assumed): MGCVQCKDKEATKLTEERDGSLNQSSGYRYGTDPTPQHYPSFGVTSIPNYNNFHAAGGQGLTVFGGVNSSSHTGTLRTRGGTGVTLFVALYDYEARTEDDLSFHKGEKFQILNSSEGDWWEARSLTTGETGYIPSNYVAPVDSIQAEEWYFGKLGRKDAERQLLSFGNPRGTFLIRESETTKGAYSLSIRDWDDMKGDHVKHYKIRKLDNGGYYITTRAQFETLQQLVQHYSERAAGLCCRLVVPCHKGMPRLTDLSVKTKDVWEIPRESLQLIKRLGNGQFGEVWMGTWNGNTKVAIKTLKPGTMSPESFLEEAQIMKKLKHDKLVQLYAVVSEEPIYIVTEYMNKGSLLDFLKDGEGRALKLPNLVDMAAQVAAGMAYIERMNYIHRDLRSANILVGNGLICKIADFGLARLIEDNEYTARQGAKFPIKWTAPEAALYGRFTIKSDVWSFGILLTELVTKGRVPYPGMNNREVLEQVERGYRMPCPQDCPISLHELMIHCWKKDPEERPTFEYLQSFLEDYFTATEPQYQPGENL

In the case of `CCN(CC)CCCC(C)Nc1ccnc2cc(Cl)ccc12` (centres unmarked) [Chloroquine], the “inhibition of CpG-induced Src family kinase activation, or its dependent cellular responses” value (Src family kinase) is given as “does not inhibit”.

In the case of `Cl.Cl.Nc1ccccc1Oc1ccc2c(N)nsc2c1` [Example M62812, 3-amino-6-(2-aminophenoxy)-1,2-benzisothiazole dihydrochloride], the “prevention of lethal septic shock” value [1] is given as “prevents lethal septic shock”.

In the case of `CCN(CC)CCCC(C)Nc1ccnc2cc(Cl)ccc12.O=P(O)(O)O.O=P(O)(O)O` (centres unmarked) [chloroquine phosphate, 7-chloro-4-[[4-(diethylamino)-1-methylbutyl]amino]quinoline phosphate (1:2)], the tolerability of infusion [2] is listed as “without complication”.

In the case of `Cc1nc(Nc2ncc(C(=O)Nc3c(C)cccc3Cl)s2)cc(N2CCN(CCO)CC2)n1.O` [dasatinib, N-(2-chloro-6-methylphenyl)-2-[[6-[4-(2-hydroxyethyl)-1-piperazinyl]-2-methyl-4-pyrimidinyl]amino]-5-thiazolecarboxamide, monohydrate], the “inhibition of Fyn” value (Fyn) is given as “inhibits”.

For `CCN(CC)C(=S)SSC(=S)N(CC)CC` [disulfuram, 1-(diethylthiocarbamoyldisulfanyl)-N,N-diethyl-methanethioamide], the proteasomal activity (proteasome) is listed as “inhibits proteasomal activity”.
